Test results reported in patent US12441710B2, “Substituted piperidino compounds and related methods of treatment” (Alkermes, Inc., priority 2020, dated 2025).

What was measured:
Format in all cases: in vitro ADME
MDR1 = experiment: MDCK-MDR1 permeability assay; conditions: dog, 3 μM test compound; for efflux ratio at 2 h, 3 μM: Papp (B→A) divided by Papp (A→B), read-out: Efflux ratio (ER); for Papp A→B at 2 h, 3 μM: apical to basolateral, 2 hours at 37 degrees C
Experimental: The bidirectional permeability (Apical to Basal and Basal to Apical directions) of test compounds in MDCK-MDR1 cells were evaluated using MDCK-MDR1 cells seeded in Solvo PreadyPort™ MDCK 96-well plate. Once the plate was received from ReadyCell (Barcelona, Spain), it was treated as per PreadyPort™ user's manual.
For the Apical to Basolateral (A→B) permeability, 80 μL of test compound (3 μM) co-dosed with LY (Lucifer Yellow) (100 μM) in HBSS (Hank's Balanced Salt Solution) assay buffer was added to the donor side (A) while 250 μL of HBSS buffer was added to the receiver side (B). For the Basolateral to Apical (B→A) permeability, 255 μL of test compound (3 μM) in HBSS assay buffer was added to the donor side (B) while 75 μL of HBSS buffer containing LY (100 μM) was added to the receiver side (A).
The plate was placed in an incubator set at 37 degrees C. After 10 minutes of pre-warming, 5 μL aliquot was taken from donor compartment and set aside as the dosing solution. The MDCK-MDR1 incubation plate was placed back into the incubator for 2 hours of incubation at 37 degrees C. After 2 hours of incubation, 25 μL and 5 μL aliquots were removed from the receiver and donor sides, respectively. To the 5 μL aliquots taken from the donor sides (before and after a 2-hour incubation) were diluted with 20 μL of the HBSS buffer. All samples were mixed with 150 μL with acetonitrile containing internal standard (IS) and 200 μL water, and analyzed by LC-MS/MS.
The apparent permeability (Papp) was calculated using the following formula: Papp=dQ/dt×1/A×C0 where: • dQ/dt: amount of translocated material over incubation time (nmol/s) • A: area of insert (0.14 cm^2 for PreadyPort™ MDR1-96) • C0: initial concentration of product applied in apical (A→B) or basal (B→A) compartment (nmol/mL).
The efflux ratio (ER) was measured by dividing the Papp (basolateral to apical direction) by Papp (apical to basolateral direction). It is a general measure of the involvement of active processes. An ER >2 is considered positive for active transport.
The data reported in Table 3 were obtained according to the MDCK-MDR1 permeability assay described above.

[1] = Hepatocytes stability assay (human hepatocytes); conditions: both sexes, cryopreserved hepatocytes, 1 μM test compound, 1×10^6 cell/mL, read-out: CLint (μL/min/million cells)
Experimental: (§1) In vitro metabolic stability was assessed using cryopreserved hepatocytes from male Sprague Dawley rats and a pool of 50 mixed gender humans (BioIVT, Baltimore, MD). The incubation mixtures were prepared by mixing 250 μL of pre-warmed KHB (Krebs-Henseleit buffer) containing 2×10^6 cell/mL of hepatocytes with 250 μL of pre-warmed KHB buffer containing 2 μM of test compounds in a 48-well plate, giving a final concentration of 1 μM test compound (0.1% DMSO) and 1×10^6 cell/mL of hepatocytes. The reaction mixture was incubated at 37 degrees C. A 50 μL aliquot of incubation mixture was taken at time points (0, 15, 30, 60, 120 and 240 minutes) and transferred into a 96-well plate containing 300 μL ice-cold acetonitrile (containing 30 ng/mL of labetalol and 10 ng/mL of Naltrexone-d3 as internal standards) and immediately placed in ice to terminate the reaction. Samples were centrifuged, and supernatants were transferred into 96-well plates for liquid chromatography with tandem mass spectrometry (LC-MS/MS) analysis to monitor the depletion of the test compound. Data was calculated as percent remaining by assuming zero-minute time point peak area ratio (analyte/IS) as 100% and dividing remaining time point peak area ratios by zero-minute time point peak area ratio. Data were fitted to a first-order decay model to determine half-life. From a plot of log (ln) peak area against time, the slope of the line was determined. Subsequently, half-life (T1/2) and intrinsic clearance (CLint) were calculated using the equations below: • Elimination rate constant (k)=(−slope) • Half-life (T1/2) min=0.693/k • Intrinsic Clearance (CLint) (mL/min/million cells)=(V×0.693)/T1/2 • V=incubation volume mL/number of cells The in vitro T1/2 was converted to in vitro intrinsic clearance (CLint,hep) in units of mL/min/kg using the formula shown below: The in vitro intrinsic clearance (CLint,hep) was scaled to in vivo hepatic clearance (CL,hep) using the following equation which was adapted from a well-stirred model. [formula] where Q is the liver blood flow and fu is the fraction unbound (assumed to be unity in this case). All parameters used in the calculation are shown below (Table 4). The extraction ratio (ER) was calculated by dividing the hepatic clearance of a compound to the liver blood flow. The data reported in Table 5 were obtained according to the human hepatocytes stability assay described above.

human hepatocytes = experiment: Hepatocytes stability assay (human hepatocytes); conditions: hepatic clearance divided by liver blood flow, fu assumed unity
Experimental: as §1

Row | Compound | efflux ratio at 2 h, 3 μM (MDR1) | Papp A→B at 2 h, 3 μM (MDR1) [×10⁻⁶ cm/s] | hepatocyte CLint at 1 μM [1] [µL/min/1e6 cells] | Extraction Ratio (ER) (human hepatocytes)
1 | CS(=O)(=O)N[C@H]1CCN(c2ccccn2)CC1COC1CCC(c2cccnc2)CC1 (some centres unmarked) [Compound 3] | 24 | 1.7 | 50 | 0.88
2 | CS(=O)(=O)N[C@H]1CCN(c2ccccn2)CC1COC1CCC(c2ccncc2)CC1 (some centres unmarked) [Compound 4] | 14 | 1.2 | 57 | 0.89
3 | CS(=O)(=O)N[C@H]1CCN(c2ccccn2)CC1COC1CCC(c2ccccc2F)CC1 (some centres unmarked) [Compound 5] | > 7.2 | < 0.9 | 49 | 0.88
4 | CS(=O)(=O)N[C@H]1CCN(c2ccccn2)CC1COC1CCC(c2ccc(F)cc2)CC1 (some centres unmarked) [Compound 7] | > 4.3 | < 1.2 | 39 | 0.85
5 | CS(=O)(=O)N[C@H]1CCN(c2ccccn2)CC1COC1CCC(c2ccncn2)CC1 (some centres unmarked) [Compound 8] | 15 | 1.8 | 30 | 0.82
6 | CS(=O)(=O)N[C@H]1CCN(c2ccccn2)CC1COC1CCC(c2cnccn2)CC1 (some centres unmarked) [Compound 9] | 25 | 0.97 | 45 | 0.87
7 | CS(=O)(=O)N[C@H]1CCN(c2ccccn2)CC1COC1CCC(c2ccccc2)CC1 (some centres unmarked) [Compound 10] | 1.4 | 5.6 | 73 | 0.92
8 | CS(=O)(=O)N[C@H]1CCN(c2ccccn2)CC1COC1CCC(c2ncccn2)CC1 (some centres unmarked) [Compound 11] | 11 | 1.6 | 21 | 0.76
9 | CS(=O)(=O)N[C@H]1CCN(c2ccccn2)CC1COC1CCC(c2cncnc2)CC1 (some centres unmarked) [Compound 12] | 33 | 1 | 35 | 0.84
10 | CS(=O)(=O)N[C@H]1CCN(c2ccccn2)CC1COC1CCC(c2ccnnc2)CC1 (some centres unmarked) [Compound 13] | 18 | 0.67 | 16 | 0.71
11 | CS(=O)(=O)N[C@H]1CCN(c2ccccn2)CC1COC1CCC(c2cccnn2)CC1 (some centres unmarked) [Compound 14] | > 56 | < 0.12 | 22 | 0.77
12 | Cc1ccccc1C1CCC(OCC2CN(c3ccccn3)CC[C@@H]2NS(C)(=O)=O)CC1 (some centres unmarked) [Compound 15] | > 6.9 | < 0.33 | 64 | 0.91
13 | Cc1cccc(C2CCC(OCC3CN(c4ccccn4)CC[C@@H]3NS(C)(=O)=O)CC2)c1 (some centres unmarked) [Compound 16] | > 7.9 | < 0.9 | 43 | 0.87
14 | Cc1cccc(C2CCC(OCC3CN(c4ccccn4)CC[C@@H]3NS(C)(=O)=O)CC2)c1C (some centres unmarked) [Compound 17] | > 6.9 | < 0.28 | 32 | 0.83
15 | Cc1cc(C)cc(C2CCC(OCC3CN(c4ccccn4)CC[C@@H]3NS(C)(=O)=O)CC2)c1 (some centres unmarked) [Compound 18] | > 2.6 | < 1.8 | 36 | 0.84
16 | CS(=O)(=O)N[C@H]1CCN(c2ncccn2)CC1COC1CCC(c2ccccc2)CC1 (some centres unmarked) [Compound 19] | 14 | 1.2 | 93 | 0.93
17 | CS(=O)(=O)N[C@H]1CCN(c2ccncn2)CC1COC1CCC(c2ccccc2)CC1 (some centres unmarked) [Compound 20] | 17 | 1.1 | 60 | 0.90
